Data published in patent publication US20240050428A1 (Cullgen (Shanghai), Inc., priority 2020, published 2024).
Read-outs that look alike come from different tables or passages of the source.

What was measured:
MV4;11 cells = assay: Cell viability assay (CellTiter-Glo) in MV4;11 cells, alone or with gilteritinib; assay type: cell-based; conditions: Homo sapiens, MV4-11, 72 h, MV4;11 cells, three days, CellTiter-Glo, read-out: MV4
MOLM-13 cells = assay: Cell viability assay (CellTiter-Glo) in MOLM-13 cells, alone or with gilteritinib; assay type: cell-based; conditions: Homo sapiens, MOLM-13, 72 h, MOLM-13 cells, three days, CellTiter-Glo
[1] = compound alone (without gilteritinib), 11 IC50
[2] = with gilteritinib 10 nM, 11 IC50 gilteritinib
[3] = compound alone (without gilteritinib), read-out: MOLM-13 IC50
[4] = with gilteritinib 20 nM, read-out: MOLM-13 IC50 gilteritinib

Compound	IC50 (MV4;11 cells; [1])	IC50 (MV4;11 cells; [2])	IC50 (MOLM-13 cells; [3])	IC50 (MOLM-13 cells; [4])
O=C1CCC(N2C(=O)c3ccc(NC4CCC(CCn5cc(-c6cnc7ccccc7n6)cn5)CC4)cc3C2=O)C(=O)N1 (stereo not drawn) [GS-183, 2-(2,6-Dioxopiperidin-3-yl)-5-((4-(2-(4-(quinoxalin-2-yl)-1H-pyrazol-1-yl)ethyl)cyclohexyl)amino)isoindoline-1,3-dione]	100 to 1000 nM	100 to 1000 nM	> 1000 nM	100 to 1000 nM
O=C1CCC(N2C(=O)c3ccc(NC4CCC(CCCn5cc(-c6cnc7ccccc7n6)cn5)CC4)cc3C2=O)C(=O)N1 (stereo not drawn) [GS-184, 2-(2,6-Dioxopiperidin-3-yl)-5-((4-(3-(4-(quinoxalin-2-yl)-1H-pyrazol-1-yl)propyl)cyclohexyl)amino)isoindoline-1,3-dione]	100 to 1000 nM	> 1000 nM	> 1000 nM	100 to 1000 nM
CN1CCN(c2ccc3ncc(-c4cnn([C@H]5C[C@H](CNc6ccc7c(c6)C(=O)N(C6CCC(=O)NC6=O)C7=O)C5)c4)nc3c2)CC1 (stereo partly drawn) [GS-185, 2-(2,6-Dioxopiperidin-3-yl)-5-(((trans-3-(4-(7-(4-methylpiperazin-1-yl)quinoxalin-2-yl)-1H-pyrazol-1-yl)cyclobutyl)methyl)amino)isoindoline-1,3-dione]	100 to 1000 nM	10 to 100 nM	100 to 1000 nM	10 to 100 nM
O=C1CCC(N2C(=O)c3ccc(NC[C@H]4C[C@@H](n5cc(-c6cnc7ccc(N8CCNCC8)cc7n6)cn5)C4)cc3C2=O)C(=O)N1 (stereo partly drawn) [GS-186, 2-(2,6-Dioxopiperidin-3-yl)-5-(((cis-3-(4-(7-(piperazin-1-yl)quinoxalin-2-yl)-1H-pyrazol-1-yl)cyclobutyl)methyl)amino)isoindoline-1,3-dione]	> 1000 nM	> 1000 nM	> 1000 nM	100 to 1000 nM
O=C1CCC(N2C(=O)c3ccc(NC[C@H]4C[C@H](n5cc(-c6cnc7ccc(N8CCNCC8)cc7n6)cn5)C4)cc3C2=O)C(=O)N1 (stereo partly drawn) [GS-187, 2-(2,6-Dioxopiperidin-3-yl)-5-(((trans-3-(4-(7-(piperazin-1-yl)quinoxalin-2-yl)-1H-pyrazol-1-yl)cyclobutyl)methyl)amino)isoindoline-1,3-dione]	> 1000 nM	> 1000 nM	> 1000 nM	> 1000 nM
O=C1CCC(N2C(=O)c3ccc(NCCC[C@H]4C[C@H](n5cc(-c6cnc7ccc(N8CCOCC8)cc7n6)cn5)C4)cc3C2=O)C(=O)N1 (stereo partly drawn) [GS-188, 2-(2,6-Dioxopiperidin-3-yl)-5-((3-(trans-3-(4-(7-morpholinoquinoxalin-2-yl)-1H-pyrazol-1-yl)cyclobutyl)propyl)amino)isoindoline-1,3-dione]	10 to 100 nM	< 10 nM	10 to 100 nM	< 10 nM
O=C1CCC(N2C(=O)c3ccc(NC[C@H]4C[C@@H](n5cc(-c6cnc7ccc(N8CCOCC8)cc7n6)cn5)C4)cc3C2=O)C(=O)N1 (stereo partly drawn) [GS-189, 2-(2,6-Dioxopiperidin-3-yl)-5-(((cis-3-(4-(7-morpholinoquinoxalin-2-yl)-1H-pyrazol-1-yl)cyclobutyl)methyl)amino)isoindoline-1,3-dione]	100 to 1000 nM	> 1000 nM	100 to 1000 nM	100 to 1000 nM
CN1CCN(c2ccc3ncc(-c4cnn([C@H]5C[C@@H](CNc6ccc7c(c6)C(=O)N(C6CCC(=O)NC6=O)C7=O)C5)c4)nc3c2)CC1 (stereo partly drawn) [GS-190, 2-(2,6-Dioxopiperidin-3-yl)-5-(((cis-3-(4-(7-(4-methylpiperazin-1-yl)quinoxalin-2-yl)-1H-pyrazol-1-yl)cyclobutyl)methyl)amino)isoindoline-1,3-dione]	> 1000 nM	> 1000 nM	> 1000 nM	100 to 1000 nM
O=C1CCC(N2C(=O)c3ccc(NC[C@H]4C[C@H](n5cc(-c6cnc7ccc(N8CCOCC8)cc7n6)cn5)C4)cc3C2=O)C(=O)N1 (stereo partly drawn) [GS-191, 2-(2,6-Dioxopiperidin-3-yl)-5-(((trans-3-(4-(7-morpholinoquinoxalin-2-yl)-1H-pyrazol-1-yl)cyclobutyl)methyl)amino)isoindoline-1,3-dione]	10 to 100 nM	< 10 nM	10 to 100 nM	< 10 nM
O=C1CCC(N2C(=O)c3ccc(NCC4CC(C(=O)N5CCC(n6cc(-c7cnc8ccccc8n7)cn6)CC5)C4)cc3C2=O)C(=O)N1 (stereo not drawn) [GS-192, 2-(2,6-Dioxopiperidin-3-yl)-5-(((3-(4-(4-(quinoxalin-2-yl)-1H-pyrazol-1-yl)piperidine-1-carbonyl)cyclobutyl)methyl)amino)isoindoline-1,3-dione]	100 to 1000 nM	10 to 100 nM	> 1000 nM	10 to 100 nM
O=C1CCC(N2C(=O)c3ccc(NC[C@H]4C[C@@H](n5cc(-c6cnc7ccc(C8CCOCC8)cc7n6)cn5)C4)cc3C2=O)C(=O)N1 (stereo partly drawn) [GS-193, 2-(2,6-Dioxopiperidin-3-yl)-5-(((cis-3-(4-(7-(tetrahydro-2H-pyran-4-yl)quinoxalin-2-yl)-1H-pyrazol-1-yl)cyclobutyl)methyl)amino)isoindoline-1,3-dione]	> 1000 nM	100 to 1000 nM	100 to 1000 nM	100 to 1000 nM
O=C1CCC(N2C(=O)c3ccc(NCCC45CC(C(=O)N6CCC(n7cc(-c8cnc9ccccc9n8)cn7)CC6)(C4)C5)cc3C2=O)C(=O)N1 (stereo not drawn) [GS-194, 2-(2,6-Dioxopiperidin-3-yl)-5-((2-(3-(4-(4-(quinoxalin-2-yl)-1H-pyrazol-1-yl)piperidine-1-carbonyl)bicyclo[1.1.1]pentan-1-yl)ethyl)amino)isoindoline-1,3-dione]	10 to 100 nM	< 10 nM	100 to 1000 nM	< 10 nM
O=C1CCC(N2C(=O)c3ccc(NCCC[C@H]4C[C@H](n5cc(-c6cnc7ccc(N8CCNCC8)cc7n6)cn5)C4)cc3C2=O)C(=O)N1 (stereo partly drawn) [GS-195, 2-(2,6-Dioxopiperidin-3-yl)-5-((3-(trans-3-(4-(7-(piperazin-1-yl)quinoxalin-2-yl)-1H-pyrazol-1-yl)cyclobutyl)propyl)amino)isoindoline-1,3-dione]	100 to 1000 nM	< 10 nM	100 to 1000 nM	< 10 nM
O=C1CCC(N2C(=O)c3ccc(NCCC[C@H]4C[C@H](n5cc(-c6cnc7ccc(NC8CCNCC8)cc7n6)cn5)C4)cc3C2=O)C(=O)N1 (stereo partly drawn) [GS-196, 2-(2,6-Dioxopiperidin-3-yl)-5-((3-(trans-3-(4-(7-(piperidin-4-ylamino)quinoxalin-2-yl)-1H-pyrazol-1-yl)cyclobutyl)propyl)amino)isoindoline-1,3-dione]	10 to 100 nM	< 10 nM	10 to 100 nM	< 10 nM
N#Cc1cccc2ncc(-c3cnn([C@H]4C[C@H](CCCNc5ccc6c(c5)C(=O)N(C5CCC(=O)NC5=O)C6=O)C4)c3)nc12 (stereo partly drawn) [GS-197, 3-(1-(trans-3-(3-((2-(2,6-Dioxopiperidin-3-yl)-1,3-dioxoisoindolin-5-yl)amino)propyl)cyclobutyl)-1H-pyrazol-4-yl)quinoxaline-5-carbonitrile]	10 to 100 nM	10 to 100 nM	100 to 1000 nM	10 to 100 nM
N#Cc1ccc2ncc(-c3cnn([C@H]4C[C@H](CCCNc5ccc6c(c5)C(=O)N(C5CCC(=O)NC5=O)C6=O)C4)c3)nc2c1 (stereo partly drawn) [GS-198, 3-(1-(trans-3-(3-((2-(2,6-Dioxopiperidin-3-yl)-1,3-dioxoisoindolin-5-yl)amino)propyl)cyclobutyl)-1H-pyrazol-4-yl)quinoxaline-6-carbonitrile]	10 to 100 nM	10 to 100 nM	100 to 1000 nM	< 10 nM
O=C1CCC(N2C(=O)c3ccc(NCCC[C@H]4C[C@H](n5cc(-c6cnc7ccc(C8CCNCC8)cc7n6)cn5)C4)cc3C2=O)C(=O)N1 (stereo partly drawn) [GS-199, 2-(2,6-Dioxopiperidin-3-yl)-5-((3-(trans-3-(4-(7-(piperidin-4-yl)quinoxalin-2-yl)-1H-pyrazol-1-yl)cyclobutyl)propyl)amino)isoindoline-1,3-dione]	10 to 100 nM	< 10 nM	100 to 1000 nM	< 10 nM
Cc1nn([C@H]2C[C@H](CNc3ccc4c(c3)C(=O)N(C3CCC(=O)NC3=O)C4=O)C2)cc1-c1cnc2ccccc2n1 (stereo partly drawn) [GS-200, 2-(2,6-Dioxopiperidin-3-yl)-5-(((trans-3-(3-methyl-4-(quinoxalin-2-yl)-1H-pyrazol-1-yl)cyclobutyl)methyl)amino)isoindoline-1,3-dione]	100 to 1000 nM	10 to 100 nM	100 to 1000 nM	10 to 100 nM
O=C1CCC(N2C(=O)c3ccc(NCCC[C@H]4C[C@H](n5cc(-c6cnc7ccc(F)cc7n6)cn5)C4)cc3C2=O)C(=O)N1 (stereo partly drawn) [GS-201, 2-(2,6-Dioxopiperidin-3-yl)-5-((3-(trans-3-(4-(7-fluoroquinoxalin-2-yl)-1H-pyrazol-1-yl)cyclobutyl)propyl)amino)isoindoline-1,3-dione]	100 to 1000 nM	10 to 100 nM	100 to 1000 nM	10 to 100 nM
O=C1CCC(N2C(=O)c3ccc(NCCC[C@H]4C[C@H](n5cc(-c6cnc7ccc(OC8CC8)cc7n6)cn5)C4)cc3C2=O)C(=O)N1 (stereo partly drawn) [GS-202, 5-((3-(trans-3-(4-(7-Cyclopropoxyquinoxalin-2-yl)-1H-pyrazol-1-yl)cyclobutyl)propyl)amino)-2-(2,6-dioxopiperidin-3-yl)isoindoline-1,3-dione]	10 to 100 nM	< 10 nM	100 to 1000 nM	< 10 nM
O=C1CCC(N2C(=O)c3ccc(NCCC[C@H]4C[C@H](n5cc(-c6cnc7ccc(N8C[C@@H]9C[C@H]8CN9)cc7n6)cn5)C4)cc3C2=O)C(=O)N1 (stereo partly drawn) [GS-203, 5-((3-(trans-3-(4-(7-((1S,4S)-2,5-Diazabicyclo[2.2.1]heptan-2-yl)quinoxalin-2-yl)-1H-pyrazol-1-yl)cyclobutyl)propyl)amino)-2-(2,6-dioxopiperidin-3-yl)isoindoline-1,3-dione]	100 to 1000 nM	10 to 100 nM	> 1000 nM	10 to 100 nM
